Test results reported in patent US20240010641A1, “N-Linked Glycosylation Inhibitors and Methods of Using Same” (YALE UNIVERSITY, priority 2020, published 2024).

Tested on: N-linked glycosylation (OST) in CHO-ER-LucT cells
Assay: CHO-ER-LucT luminescence assay for inhibition of N-linked glycosylation
Format: cell-based
Details: for Emax: 24 h, [compound's fold change-1.0 (DMSO)]/[NGI-1 fold change-1.0 (DMSO)]*100, read-out: Max activity (% NGI-1); for AC50: CHO-ER-LucT cells, 24 hrs exposure, seven-point dose dilution, luminescence
Procedure: The CHO-ER-LucT cells have been previously described (Contessa et al., 2010, Clinical Cancer Research, 16(12):3205-14) and are used for testing analog IC50 for inhibition of N-linked glycosylation in 96 or 384 well plate format. In these cells induction of luminescence is dependent on inhibition of glycosylation (and OST inhibition), and is determined after 24 hrs of exposure to the analog following the addition of luciferin substrate. The luminescent signal is then quantified using standard plate readers that detect luminescence (e.g., Biotek synergy). Experiments are performed over a seven-point dose dilution to generate dose response data and to identify IC50 values and maximal activity compared to controls. Data is transformed to log 10 values to generate a sigmoidal shaped dose response curve and fitted using nonlinear regression (curve fit) in GraphPad Prism7.
All HL compounds were tested in CHO-ER-LucT cells. IC50 (AC50) was estimated in following method: Concentration X is converted to logarithm (log10) to generate sigmoidal shape curve and dose response curve is generated using Nonlinear regression (curve fit) in Prism. EC50 (AC50) is calculated using log(agonist) vs response-(three parameters)] which uses standard Hill slope (=1).
Max activity: [compound's fold change−1.0 (DMSO)]/[NGI−1 fold change−1.0 (DMSO)]*100(%) (Eq. 1)

Row | SMILES | Emax [%] | AC50 [nM]
1 | Cc1ccc(NC(=O)c2cc(S(=O)(=O)N(C)C)cnc2N2CCCC2)cc1 | 14.9 | 94500
2 | Cc1cnc(NC(=O)c2cc(S(=O)(=O)N(C)C)cnc2N2CCCC2)s1 | 50.4 | 70400
3 | Cc1cnc(NC(=O)c2cc(S(=O)(=O)N(C)C)cc(F)c2N2CCCC2)s1 | 114 | 36900
4 | CCc1cnc(NC(=O)c2cc(S(=O)(=O)N(C)C)cc(F)c2N2CCCC2)s1 | 97.3 | 3760
5 | Cc1nc(NC(=O)c2cc(S(=O)(=O)N(C)C)ccc2N(C)C)sc1C | 33.9 | 27900
6 | CCc1cnc(NC(=O)c2cc(S(=O)(=O)N(C)C)ccc2N(C)C)s1 | 46.1 | 6850
7 | Cc1nc(NC(=O)c2cc(S(=O)(=O)N(C)C)ccc2N(C)C2CC2)sc1C | 43.9 | 3440
8 | CCc1cnc(NC(=O)c2cc(S(=O)(=O)N(C)C)ccc2N(C)C2CC2)s1 | 86.8 | 1190
9 | CN(c1ccc(S(=O)(=O)N(C)C)cc1C(=O)Nc1nc2c(s1)COCC2)C1CCCC1 | 46.2 | 1020
10 | Cc1cnc(NC(=O)c2cc(S(=O)(=O)N(C)C)cnc2N(C)CC2CC2)s1 | 48.3 | 3020
11 | CCc1cnc(NC(=O)c2cc(S(=O)(=O)N3CCOCC3)ccc2N(C)CC)s1 | 130 | 620
12 | CCc1cnc(NC(=O)c2cc(S(=O)(=O)N3CCOCC3)ccc2N(C)C2CC2)s1 | 129 | 2500
13 | CCc1cnc(NC(=O)c2cc(S(=O)(=O)CC3CC3)ccc2N(C)C2CCCC2)s1 | 89.9 | 1530
14 | Cc1nc(NC(=O)c2cc(S(=O)(=O)CC3CC3)ccc2N(C)C2CCCC2)sc1C | 41 | 2430
15 | Cc1nc(NC(=O)c2cc(S(=O)(=O)N3CCOCC3)ccc2N(C)C2CC2)sc1C | 36.7 | 2530
16 | C=CCN(C)c1ccc(S(=O)(=O)N(C)C)cc1C(=O)Nc1ncc(CC)s1 | 108 | 1100
17 | CCc1cnc(NC(=O)c2cc(S(=O)(=O)CC3CC3)ccc2N(C)CC2CC2)s1 | 88.3 | 2590
18 | Cc1nc(NC(=O)c2cc(S(=O)(=O)N3CCN(C)CC3)ccc2N(C)CC2CC2)sc1C | 76.9 | 2200
19 | CN(CC1CC1)c1ccc(S(=O)(=O)N2CCOCC2)cc1C(=O)Nc1ncc(Cc2ccccc2)s1 | 116 | 13000
20 | CCc1cnc(NC(=O)c2cc(S(=O)(=O)N(C)C)ccc2N(CC)CC)s1 [Comparator, reference compound] | 46.8 | 3360
21 | Cc1nc(NC(=O)c2cc(S(=O)(=O)N(C)C)ccc2N(C)C2CCCC2)sc1C [Example 1, 2-(cyclopentyl(methyl)amino)-5-(N,N-dimethylsulfamoyl)-N-(4,5-dimethylthiazol-2-yl)benzamide] | 81 | 376
22 | CCc1cnc(NC(=O)c2cc(S(=O)(=O)N(C)C)ccc2N(C)C2CCCC2)s1 [Example 2, 2-(cyclopentyl(methyl)amino)-5-(N,N-dimethylsulfamoyl)-N-(5-ethylthiazol-2-yl)benzamide] | 129 | 120
23 | CCc1cnc(NC(=O)c2cc(S(=O)(=O)N3CCOCC3)ccc2N(C)C(C)C)s1 [Example 5, N-(5-ethylthiazol-2-yl)-2-(isopropyl(methyl)amino)-5-(morpholinosulfonyl)benzamide] | 162 | 270
24 | CCc1cnc(NC(=O)c2cc(S(=O)(=O)N3CCOCC3)ccc2N(C)C2CCCCC2)s1 [Example 6, 2-(cyclohexyl(methyl)amino)-N-(5-ethylthiazol-2-yl)-5-(morpholinosulfonyl)benzamide] | 148 | 215
25 | CCc1cnc(NC(=O)c2cc(S(=O)(=O)N3CCOCC3)ccc2N(C)C2CCC2)s1 [Example 7, 2-(cyclobutyl(methyl)amino)-N-(5-ethylthiazol-2-yl)-5-(morpholinosulfonyl)benzamide] | 138 | 243
